# Assay results from ChEMBL document CHEMBL1201862, “PubChem BioAssay data set” (2004).
#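 Dose response: 5 concentrations. Exposure: 48 h. Format: 96-well plates. Endpoint: linear interpolation; highest concentration if not reached. GI50: concentration for 50% inhibition of growth.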 The source made the active and inactive calls. No stated cut-off is given here; in the data, active = GI50 up to about 1.1 µM and inactive = higher.
# Legend:
# Experiment in all cases: NCI anticancer screen, dose series, 48 h
# SK-MEL-2 = test system: SK-MEL-2
# SNB-75 = test system: SNB-75
# DMS-114 = test system: DMS-114
# K562 = test system: K562
# DMS-273 = test system: DMS-273
# OVCAR-3 = test system: OVCAR-3
# EKVX = test system: EKVX
# DLD-1 = test system: DLD-1
# UACC-257 = test system: UACC-257
# HOP-18 = test system: HOP-18
# NCI-H460 = test system: NCI-H460
# SR = test system: SR
# SN12C = test system: SN12C
# CAKI-1 = test system: CAKI-1
# CCRF-CEM = test system: CCRF-CEM
# XF498 = test system: XF498
# HCT-15 = test system: HCT-15
# Malme-3M = test system: Malme-3M
# U-251 = test system: U-251
# IGROV-1 = test system: IGROV-1
# HOP-92 = test system: HOP-92
# LOX IMVI = test system: LOX IMVI
# SF-295 = test system: SF-295
# NCI-H23 = test system: NCI-H23
# LXFL 529 = test system: LXFL 529
# NCI-H522 = test system: NCI-H522
# HT-29 = test system: HT-29
# M14 = test system: M14
# HOP-62 = test system: HOP-62
# SK-MEL-5 = test system: SK-MEL-5
# A549 = test system: A549
# OVCAR-4 = test system: OVCAR-4
# M19-MEL = test system: M19-MEL
# SK-OV-3 = test system: SK-OV-3
# OVCAR-5 = test system: OVCAR-5
# HL-60 = test system: HL-60
# RPMI-8226 = test system: RPMI-8226
# RXF 393 = test system: RXF 393
# MOLT-4 = test system: MOLT-4
# SNB-78 = test system: SNB-78
# KM-20L2 = test system: KM-20L2
# SF-268 = test system: SF-268
# SF-539 = test system: SF-539
# TK-10 = test system: TK-10
# SW-620 = test system: SW-620
# ACHN = test system: ACHN
# SNB-19 = test system: SNB-19
# HCT-116 = test system: HCT-116
# HCC 2998 = test system: HCC 2998
# NCI-H226 = test system: NCI-H226
# UACC-62 = test system: UACC-62
# UO-31 = test system: UO-31
# OVCAR-8 = test system: OVCAR-8
# COLO 205 = test system: COLO 205
# KM12 = test system: KM12
# SK-MEL-28 = test system: SK-MEL-28
# 786-0 = test system: 786-0
# A498 = test system: A498
smiles,measurement,setting,value
O=C(O)C1CCCCN1c1ccccc1[N+](=O)[O-] (stereo not given),GI50,SK-MEL-2,> 100 µM (inactive)
same,GI50,SNB-75,> 100 µM (inactive)
same,GI50,DMS-114,> 100 µM (inactive)
same,GI50,K562,> 100 µM (inactive)
same,GI50,DMS-273,> 100 µM (inactive)
same,GI50,OVCAR-3,> 100 µM (inactive)
same,GI50,EKVX,> 100 µM (inactive)
same,GI50,DLD-1,> 100 µM (inactive)
same,GI50,UACC-257,> 100 µM (inactive)
same,GI50,HOP-18,> 100 µM (inactive)
same,GI50,NCI-H460,> 100 µM (inactive)
same,GI50,SR,> 100 µM (inactive)
same,GI50,SN12C,> 100 µM (inactive)
same,GI50,CAKI-1,> 100 µM (inactive)
same,GI50,CCRF-CEM,> 100 µM (inactive)
same,GI50,XF498,> 100 µM (inactive)
same,GI50,HCT-15,> 100 µM
same,GI50,Malme-3M,> 100 µM (inactive)
same,GI50,U-251,> 100 µM (inactive)
same,GI50,IGROV-1,> 100 µM (inactive)
same,GI50,HOP-92,> 100 µM (inactive)
same,GI50,LOX IMVI,> 100 µM (inactive)
same,GI50,SF-295,> 100 µM (inactive)
same,GI50,NCI-H23,> 100 µM (inactive)
same,GI50,LXFL 529,> 100 µM (inactive)
same,GI50,NCI-H522,> 100 µM (inactive)
same,GI50,HT-29,> 100 µM (inactive)
same,GI50,M14,> 100 µM (inactive)
same,GI50,HOP-62,> 100 µM (inactive)
same,GI50,SK-MEL-5,> 100 µM (inactive)
same,GI50,A549,> 100 µM (inactive)
same,GI50,OVCAR-4,> 100 µM (inactive)
same,GI50,M19-MEL,> 100 µM (inactive)
same,GI50,SK-OV-3,> 100 µM (inactive)
same,GI50,OVCAR-5,> 100 µM (inactive)
same,GI50,HL-60,> 100 µM (inactive)
same,GI50,RPMI-8226,> 100 µM (inactive)
same,GI50,RXF 393,> 100 µM (inactive)
same,GI50,MOLT-4,> 100 µM (inactive)
same,GI50,SNB-78,> 100 µM (inactive)
same,GI50,KM-20L2,> 100 µM (inactive)
same,GI50,SF-268,> 100 µM (inactive)
same,GI50,SF-539,> 100 µM (inactive)
same,GI50,TK-10,> 100 µM (inactive)
same,GI50,SW-620,> 100 µM (inactive)
same,GI50,ACHN,> 100 µM (inactive)
same,GI50,SNB-19,> 100 µM (inactive)
same,GI50,HCT-116,> 100 µM (inactive)
same,GI50,HCC 2998,> 100 µM (inactive)
same,GI50,NCI-H226,> 100 µM (inactive)
same,GI50,UACC-62,> 100 µM (inactive)
same,GI50,UO-31,> 100 µM (inactive)
same,GI50,OVCAR-8,> 100 µM (inactive)
O=C1c2nn(-c3ccccc3)nc2C(c2ccccc2)N1c1ccccc1 (stereo not given),GI50,SK-MEL-2,> 100 µM (inactive)
same,GI50,SNB-75,25 µM (inactive)
same,GI50,DMS-114,> 100 µM (inactive)
same,GI50,K562,> 100 µM (inactive)
same,GI50,DMS-273,> 100 µM (inactive)
same,GI50,COLO 205,> 100 µM (inactive)
same,GI50,OVCAR-3,> 100 µM (inactive)
same,GI50,EKVX,> 100 µM (inactive)
same,GI50,DLD-1,> 100 µM (inactive)
same,GI50,UACC-257,> 100 µM (inactive)
same,GI50,HOP-18,> 100 µM (inactive)
same,GI50,NCI-H460,> 100 µM (inactive)
same,GI50,SR,> 100 µM (inactive)
same,GI50,SN12C,> 100 µM (inactive)
same,GI50,CAKI-1,> 100 µM (inactive)
same,GI50,CCRF-CEM,> 100 µM (inactive)
same,GI50,XF498,> 100 µM (inactive)
same,GI50,HCT-15,> 100 µM
same,GI50,Malme-3M,> 100 µM (inactive)
same,GI50,U-251,95.3 µM (inactive)
same,GI50,IGROV-1,77.6 µM (inactive)
same,GI50,KM12,> 100 µM (inactive)
same,GI50,LOX IMVI,> 100 µM (inactive)
same,GI50,SF-295,41.7 µM (inactive)
same,GI50,NCI-H23,> 100 µM (inactive)
same,GI50,LXFL 529,> 100 µM (inactive)
same,GI50,NCI-H522,> 100 µM (inactive)
same,GI50,HT-29,> 100 µM (inactive)
same,GI50,M14,> 100 µM (inactive)
same,GI50,HOP-62,28.3 µM (inactive)
same,GI50,SK-MEL-5,> 100 µM (inactive)
same,GI50,A549,> 100 µM (inactive)
same,GI50,OVCAR-4,> 100 µM (inactive)
same,GI50,M19-MEL,> 100 µM (inactive)
same,GI50,OVCAR-5,> 100 µM (inactive)
same,GI50,RPMI-8226,> 100 µM (inactive)
same,GI50,SK-MEL-28,> 100 µM (inactive)
same,GI50,786-0,33.3 µM (inactive)
same,GI50,MOLT-4,> 100 µM (inactive)
same,GI50,SNB-78,28.1 µM (inactive)
same,GI50,KM-20L2,> 100 µM (inactive)
same,GI50,SF-268,> 100 µM (inactive)
same,GI50,SF-539,59.8 µM (inactive)
same,GI50,SW-620,> 100 µM (inactive)
same,GI50,ACHN,> 100 µM (inactive)
same,GI50,SNB-19,> 100 µM (inactive)
same,GI50,HCT-116,> 100 µM (inactive)
same,GI50,HCC 2998,> 100 µM (inactive)
same,GI50,NCI-H226,34 µM (inactive)
same,GI50,UACC-62,> 100 µM (inactive)
same,GI50,UO-31,> 100 µM (inactive)
same,GI50,OVCAR-8,52.8 µM (inactive)
COc1ccccc1NC(=O)CC(=O)N1N=C(C)C(/N=N/c2ccc(S(N)(=O)=O)cc2)C1=O (stereo not given),GI50,SK-MEL-2,> 100 µM (inactive)
same,GI50,SNB-75,> 100 µM (inactive)
same,GI50,DMS-114,> 100 µM (inactive)
same,GI50,DMS-273,> 100 µM (inactive)
same,GI50,COLO 205,> 100 µM (inactive)
same,GI50,OVCAR-3,> 100 µM (inactive)
same,GI50,EKVX,> 100 µM (inactive)
same,GI50,DLD-1,> 100 µM (inactive)
same,GI50,UACC-257,> 100 µM (inactive)
same,GI50,HOP-18,> 100 µM (inactive)
same,GI50,NCI-H460,> 100 µM (inactive)
same,GI50,SR,> 100 µM (inactive)
same,GI50,SN12C,> 100 µM (inactive)
same,GI50,CAKI-1,> 100 µM (inactive)
same,GI50,XF498,> 100 µM (inactive)
same,GI50,HCT-15,> 100 µM
same,GI50,Malme-3M,> 100 µM (inactive)
same,GI50,U-251,> 100 µM (inactive)
same,GI50,IGROV-1,> 100 µM (inactive)
same,GI50,KM12,> 100 µM (inactive)
same,GI50,HOP-92,> 100 µM (inactive)
same,GI50,LOX IMVI,> 100 µM (inactive)
same,GI50,SF-295,> 100 µM (inactive)
same,GI50,NCI-H23,> 100 µM (inactive)
same,GI50,LXFL 529,> 100 µM (inactive)
same,GI50,NCI-H522,> 100 µM (inactive)
same,GI50,HT-29,> 100 µM (inactive)
same,GI50,M14,> 100 µM (inactive)
same,GI50,HOP-62,> 100 µM (inactive)
same,GI50,SK-MEL-5,> 100 µM (inactive)
same,GI50,A549,> 100 µM (inactive)
same,GI50,OVCAR-4,> 100 µM (inactive)
same,GI50,M19-MEL,> 100 µM (inactive)
same,GI50,SK-OV-3,> 100 µM (inactive)
same,GI50,OVCAR-5,> 100 µM (inactive)
same,GI50,RPMI-8226,> 100 µM (inactive)
same,GI50,SK-MEL-28,> 100 µM (inactive)
same,GI50,786-0,> 100 µM (inactive)
same,GI50,RXF 393,> 100 µM (inactive)
same,GI50,MOLT-4,> 100 µM (inactive)
same,GI50,SNB-78,> 100 µM (inactive)
same,GI50,KM-20L2,> 100 µM (inactive)
same,GI50,SF-268,> 100 µM (inactive)
same,GI50,SF-539,> 100 µM (inactive)
same,GI50,TK-10,> 100 µM (inactive)
same,GI50,SW-620,> 100 µM (inactive)
same,GI50,A498,> 100 µM (inactive)
same,GI50,ACHN,> 100 µM (inactive)
same,GI50,SNB-19,> 100 µM (inactive)
same,GI50,HCT-116,> 100 µM (inactive)
same,GI50,HCC 2998,> 100 µM (inactive)
same,GI50,NCI-H226,> 100 µM (inactive)
same,GI50,UACC-62,> 100 µM (inactive)
same,GI50,UO-31,> 100 µM (inactive)
same,GI50,OVCAR-8,> 100 µM (inactive)
